Data reported in article PMC10648541, “Design, Synthesis, and Antiproliferative Activity of Selective Histone Deacetylases 6 Inhibitors Containing a Tetrahydropyridopyrimidine Scaffold” (Molecules, 2023).

Legend:
HDAC1 = target: T1, HDAC1 (Homo sapiens, UniProt Q13547); assay: In vitro HDAC enzyme assay (Reaction Biology Corporation), HDAC1; assay type: biochemical; details: Table 1; duplicate, SD < 15%
T1 construct: purchased Reaction Biology Corporation

HDAC6 = target: T2, HDAC6 (Homo sapiens, UniProt Q9UBN7); assay: In vitro HDAC enzyme assay (Reaction Biology Corporation), HDAC6; assay type: biochemical
T2 construct: purchased Reaction Biology Corporation
T2 sequence (Q9UBN7 1-1215): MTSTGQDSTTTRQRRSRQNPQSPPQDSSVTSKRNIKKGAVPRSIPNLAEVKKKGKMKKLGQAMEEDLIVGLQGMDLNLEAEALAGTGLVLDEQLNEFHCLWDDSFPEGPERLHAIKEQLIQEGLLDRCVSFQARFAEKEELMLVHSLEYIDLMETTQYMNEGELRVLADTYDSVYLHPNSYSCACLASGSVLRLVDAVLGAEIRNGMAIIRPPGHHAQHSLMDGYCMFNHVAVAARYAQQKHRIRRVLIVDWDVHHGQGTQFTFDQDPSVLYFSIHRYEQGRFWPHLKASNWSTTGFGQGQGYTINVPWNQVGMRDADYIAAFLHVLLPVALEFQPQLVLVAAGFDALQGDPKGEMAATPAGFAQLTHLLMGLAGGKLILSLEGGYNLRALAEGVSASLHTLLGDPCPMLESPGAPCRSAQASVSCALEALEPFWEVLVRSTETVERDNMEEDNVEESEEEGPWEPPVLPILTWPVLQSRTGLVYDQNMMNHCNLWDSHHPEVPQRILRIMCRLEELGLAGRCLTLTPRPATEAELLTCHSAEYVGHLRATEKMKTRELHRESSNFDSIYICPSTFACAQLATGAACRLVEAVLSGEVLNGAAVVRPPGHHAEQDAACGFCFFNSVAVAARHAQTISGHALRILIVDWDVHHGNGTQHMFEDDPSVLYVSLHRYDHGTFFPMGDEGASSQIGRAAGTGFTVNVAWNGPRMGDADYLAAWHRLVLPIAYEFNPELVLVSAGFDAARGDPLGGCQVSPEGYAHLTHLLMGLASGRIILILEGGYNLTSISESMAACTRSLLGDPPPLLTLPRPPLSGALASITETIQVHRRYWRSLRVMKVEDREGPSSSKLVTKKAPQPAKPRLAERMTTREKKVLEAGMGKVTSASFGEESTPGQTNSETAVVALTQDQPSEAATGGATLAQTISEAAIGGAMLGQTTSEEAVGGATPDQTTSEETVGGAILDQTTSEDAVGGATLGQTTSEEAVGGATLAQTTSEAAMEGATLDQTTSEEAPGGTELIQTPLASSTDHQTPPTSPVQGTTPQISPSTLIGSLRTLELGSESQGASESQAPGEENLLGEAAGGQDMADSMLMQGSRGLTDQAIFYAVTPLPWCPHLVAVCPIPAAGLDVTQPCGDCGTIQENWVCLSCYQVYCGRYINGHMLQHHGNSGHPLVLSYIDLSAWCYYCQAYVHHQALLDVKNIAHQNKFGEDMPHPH

HDAC4 = target: T3, HDAC4 (Homo sapiens, UniProt P56524); assay: In vitro HDAC enzyme assay (Reaction Biology Corporation), HDAC4; assay type: biochemical; details: Table 2 isozyme screen; duplicate, SD < 15%
T3 construct: purchased Reaction Biology Corporation
T3 sequence (P56524 whole entry): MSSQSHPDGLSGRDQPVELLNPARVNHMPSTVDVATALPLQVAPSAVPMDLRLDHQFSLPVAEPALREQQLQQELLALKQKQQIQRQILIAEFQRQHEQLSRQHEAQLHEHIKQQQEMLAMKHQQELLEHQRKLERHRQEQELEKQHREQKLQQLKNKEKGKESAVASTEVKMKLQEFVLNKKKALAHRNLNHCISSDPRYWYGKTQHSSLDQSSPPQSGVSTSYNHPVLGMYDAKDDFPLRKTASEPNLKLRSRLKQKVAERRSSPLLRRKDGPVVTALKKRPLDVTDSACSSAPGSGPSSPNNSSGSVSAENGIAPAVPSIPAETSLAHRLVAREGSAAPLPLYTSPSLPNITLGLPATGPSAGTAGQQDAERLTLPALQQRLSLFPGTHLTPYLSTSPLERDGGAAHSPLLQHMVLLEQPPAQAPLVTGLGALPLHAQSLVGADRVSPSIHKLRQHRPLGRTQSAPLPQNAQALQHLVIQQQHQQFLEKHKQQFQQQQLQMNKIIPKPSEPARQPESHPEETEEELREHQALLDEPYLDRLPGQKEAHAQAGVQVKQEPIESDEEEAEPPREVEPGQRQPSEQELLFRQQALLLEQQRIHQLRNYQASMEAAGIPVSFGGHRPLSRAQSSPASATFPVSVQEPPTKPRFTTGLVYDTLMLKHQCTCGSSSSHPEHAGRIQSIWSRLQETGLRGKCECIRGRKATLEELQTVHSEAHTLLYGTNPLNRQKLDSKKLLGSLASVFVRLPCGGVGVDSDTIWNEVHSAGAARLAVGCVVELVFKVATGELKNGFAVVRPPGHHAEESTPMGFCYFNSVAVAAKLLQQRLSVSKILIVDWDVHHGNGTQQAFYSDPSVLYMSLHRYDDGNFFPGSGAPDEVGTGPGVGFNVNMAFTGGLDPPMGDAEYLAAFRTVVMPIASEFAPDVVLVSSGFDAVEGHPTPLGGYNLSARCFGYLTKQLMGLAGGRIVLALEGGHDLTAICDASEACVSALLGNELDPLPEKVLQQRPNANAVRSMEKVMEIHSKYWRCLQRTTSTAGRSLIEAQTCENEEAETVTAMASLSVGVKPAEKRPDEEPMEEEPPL

MOLT-4 = assay: NCI-60 antiproliferative screening, MOLT-4; assay type: cell-based; details: Homo sapiens, MOLT-4 (Leukemia), read-out: Inhibition% values at 10 μM concentration
From the text: (§1) Then, 8f was submitted to NCI for antiproliferative evaluation against 59 different tumor cell lines. The cancer types of the NCI-60 program include leukemia, non-small cell lung cancer (NSCLC), colon cancer, CNS cancer, melanoma, ovary cancer, renal cancer, prostate cancer, and breast cancer.

A549/ATCC = assay: NCI-60 antiproliferative screening, A549/ATCC; assay type: cell-based; details: Homo sapiens, A549/ATCC (Non-Small Cell Lung Cancer), read-out: Inhibition% values at 10 μM concentration
From the text: as §1

HOP-62 = assay: NCI-60 antiproliferative screening, HOP-62; assay type: cell-based; details: Homo sapiens, HOP-62 (Non-Small Cell Lung Cancer), read-out: Inhibition% values at 10 μM concentration
From the text: as §1

HOP-92 = assay: NCI-60 antiproliferative screening, HOP-92; assay type: cell-based; details: Homo sapiens, HOP-92 (Non-Small Cell Lung Cancer), read-out: Inhibition% values at 10 μM concentration
From the text: as §1

NCI-H460 = assay: NCI-60 antiproliferative screening, NCI-H460; assay type: cell-based; details: Homo sapiens, NCI-H460 (Non-Small Cell Lung Cancer), read-out: Inhibition% values at 10 μM concentration
From the text: as §1

SF-295 = assay: NCI-60 antiproliferative screening, SF-295; assay type: cell-based; details: Homo sapiens, SF-295 (CNS Cancer), read-out: Inhibition% values at 10 μM concentration
From the text: as §1

SF-539 = assay: NCI-60 antiproliferative screening, SF-539; assay type: cell-based; details: Homo sapiens, SF-539 (CNS Cancer), read-out: Inhibition% values at 10 μM concentration
From the text: as §1

MALME-3M = assay: NCI-60 antiproliferative screening, MALME-3M; assay type: cell-based; details: Homo sapiens, MALME-3M (Melanoma), read-out: Inhibition% values at 10 μM concentration
From the text: as §1

OVCAR-3 = assay: NCI-60 antiproliferative screening, OVCAR-3; assay type: cell-based; details: Homo sapiens, OVCAR-3 (Ovarian Cancer), read-out: Inhibition% values at 10 μM concentration
From the text: as §1

OVCAR-5 = assay: NCI-60 antiproliferative screening, OVCAR-5; assay type: cell-based; details: Homo sapiens, OVCAR-5 (Ovarian Cancer), read-out: Inhibition% values at 10 μM concentration
From the text: as §1

OVCAR-8 = assay: NCI-60 antiproliferative screening, OVCAR-8; assay type: cell-based; details: Homo sapiens, OVCAR-8 (Ovarian Cancer), read-out: Inhibition% values at 10 μM concentration
From the text: as §1

SK-OV-3 = assay: NCI-60 antiproliferative screening, SK-OV-3; assay type: cell-based; details: Homo sapiens, SK-OV-3 (Ovarian Cancer), read-out: Inhibition% values at 10 μM concentration
From the text: as §1

UO-31 = assay: NCI-60 antiproliferative screening, UO-31; assay type: cell-based; details: Homo sapiens, UO-31 (Renal Cancer), read-out: Inhibition% values at 10 μM concentration
From the text: as §1

T1 sequence (Q13547 whole entry): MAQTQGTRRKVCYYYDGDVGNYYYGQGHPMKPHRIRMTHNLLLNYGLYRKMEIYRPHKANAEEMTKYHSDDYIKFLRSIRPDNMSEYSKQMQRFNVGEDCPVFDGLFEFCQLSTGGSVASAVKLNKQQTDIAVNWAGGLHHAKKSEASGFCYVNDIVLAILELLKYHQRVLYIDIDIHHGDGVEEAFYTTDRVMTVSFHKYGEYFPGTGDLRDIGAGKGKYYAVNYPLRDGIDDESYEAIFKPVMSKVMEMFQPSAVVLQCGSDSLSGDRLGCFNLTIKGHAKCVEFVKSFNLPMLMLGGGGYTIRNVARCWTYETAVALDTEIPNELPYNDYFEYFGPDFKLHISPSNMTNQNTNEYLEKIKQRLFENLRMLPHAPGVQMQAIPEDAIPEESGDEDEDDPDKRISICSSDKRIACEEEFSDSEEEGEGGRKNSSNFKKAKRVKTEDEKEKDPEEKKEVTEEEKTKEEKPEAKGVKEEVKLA

COc1cccc(-c2nc3c(c(-c4cccc(OC)c4)n2)CCN(C(=O)CCCCCCC(=O)NO)C3)c1 [Compound 8f, 8-(2,4-Bis(3-methoxyphenyl)-5,8-dihydropyrido [3,4-d]pyrimidin-7(6H)-yl)-N-hydroxy-8-oxooctanamide]
IC50 (HDAC1): 308 nM
selectivity over other subtypes (HDAC6; HDAC6 over other HDAC subtypes): > 48 fold
Selectivity Index (HDAC6; Table 1, HDAC6 against HDAC1): 48
IC50 (HDAC6; Table 1, duplicate, SD < 15%): 6.4 nM
HDAC4 IC50 (HDAC4): poor activity
IC50 (HDAC4): > 10000 nM
inhibition at 10 µM (MOLT-4): 87.7%
inhibition at 10 µM (A549/ATCC): 87.7%
inhibition at 10 µM (HOP-62): 99.1%
inhibition at 10 µM (HOP-92): 100%
inhibition at 10 µM (NCI-H460): 95.5%
inhibition at 10 µM (SF-295): 100%
inhibition at 10 µM (SF-539): 99%
inhibition at 10 µM (MALME-3M): 100%
inhibition at 10 µM (OVCAR-3): 100%
inhibition at 10 µM (OVCAR-5): 100%
inhibition at 10 µM (OVCAR-8): 93.6%
inhibition at 10 µM (SK-OV-3): 100%
inhibition at 10 µM (UO-31): 100%
